Experimental findings from ChEMBL document CHEMBL1811859, “Second-generation sulfonamide inhibitors of D-glutamic acid-adding enzyme: activity optimisation with conformationally rigid analogues of D-glutamic acid” (Eur J Med Chem, 2011) are described below.

Assay [1] can be described thus: Inhibition of Escherichia coli MurD ligase after 10 mins using malachite green reagent by colorimetry.
The nature of assay [2]: Inhibition of Escherichia coli MurD ligase by fluorimetric assay.

Consider `C[C@@H]1NC(=O)[C@H](CO)NC(=O)CCCCCC[C@H](C(=O)O)CC1=O`, for which the IC50 in assay [1] stood at 0.7 µM.
As for `Cc1ccc(C(=O)O)cc1NC(=O)CSc1nnc(N)s1`, in assay [2], the IC50 was 105 µM.

By IC50 is commonly meant the midpoint of a concentration-inhibition curve.
